Assays:
Plasmodium falciparum [1] = test: Antimalarial activity against chloroquine-sensitive Plasmodium falciparum 3D7 at 120 uM after 72 hrs by DAPI staining method; type: functional
HEK293 = test: Cytotoxicity against human HEK293 cells up to 120 uM after 72 hrs by Alamar blue assay; type: cell-based; conditions: hek293, 72 h
Plasmodium falciparum [2] = test: Antimalarial activity against chloroquine-resistant Plasmodium falciparum Dd2 at 120 uM after 72 hrs by DAPI staining method
[3] = Cytotoxicity against human HEK293 cells at 120 uM after 72 hrs by Alamar blue assay; type: cell-based; conditions: read-out: GI
Plasmodium falciparum [4] = test: Antimalarial activity against chloroquine-sensitive Plasmodium falciparum 3D7 after 72 hrs by DAPI staining method; type: functional, organism-based; conditions: 3D7, 72 h
Plasmodium falciparum [5] = test: Antimalarial activity against chloroquine-resistant Plasmodium falciparum Dd2 after 72 hrs by DAPI staining method; conditions: Dd2, 72 h

Row | IC50 (Plasmodium falciparum [4]) [µM] | IC50 (Plasmodium falciparum [5]) [µM] | Compound | Activity (Plasmodium falciparum [1]) [%] | Activity (HEK293) | Activity (Plasmodium falciparum [2]) [%] | inhibition at 72 h, 120 µM [3] [%]
1 | – | – | COc1cc(O)c2c(c1O)-c1nccc(C)c1C2=O | 87 | Non-toxic | 80 | –
2 | 9.9 | 11.4 | COc1ccc2c(c1O)-c1nccc(C)c1C2=O | – | – | – | 96

— ChEMBL document CHEMBL1153785, “Antimalarial activity of azafluorenone alkaloids from the Australian tree Mitrephora diversifolia” (J Nat Prod, 2009)
